Experimental findings from ChEMBL document CHEMBL6114969, “Ultra-short lipopeptides containing d-amino acid exhibiting excellent stability and antibacterial activity against gram-positive bacteria” (Eur J Med Chem, 2025) are described below.

In assay [1] the test system is Staphylococcus aureus. In words: Antibacterial activity against methicillin-resistant Staphylococcus aureus ATCC 33591 infected in Balb/c mouse model of skin wound infection assessed as wound heal at 10 mg/kg, ip administered thrice at 1, 24 and 48 hrs post-infection measured after 14 days relative to control. Type of assay: functional. The conditions noted are these: time 14 day.

Assay [2] relates to Staphylococcus aureus. The assay is described as follows: Inhibition of gentamicin-induced drug resistance in Staphylococcus aureus ATCC 25923 at sub-MIC measured upto 15 passages. Type of assay: functional, organism-based.
A further assay has as its system Mus musculus. The assay is described as follows: In vivo inhibition of inflammation in Balb/c mouse model of acute systemic infection infected with methicillin-resistant Staphylococcus aureus ATCC 33591 assessed as reduction in TNF-alpha activity at 10 mg/kg, ip measured after 5 days. Type of assay: functional, organism-based. The following applies: time 5.0 day.

Assay [3] relates to Staphylococcus aureus. The assay is described as follows: Elimination of biofilm generation of methicillin-resistant Staphylococcus aureus ATCC 33591 incubated for 24 hrs by MTT assay. Type of assay: functional, organism-based.
Assay [4] has as its system Staphylococcus aureus. In words: Antibacterial activity against methicillin-resistant Staphylococcus aureus ATCC 33591 infected in Balb/c mouse model of acute systemic infection assessed as reduction in bleeding in liver at 10 mg/kg, ip measured after 5 days by H and E staining based analysis. It counts as functional, organism-based. The conditions noted are these: time 5.0 day.

Calls of active or inactive are those of the source. No cut-off for these calls is given here.

Turning to `CCCCCCCCCCCC(=O)N[C@H](CCCNC(=N)N)C(=O)N[C@H](CCCNC(=N)N)C(=O)N[C@H](Cc1c[nH]c2ccccc12)C(=O)O`, the Activity was 100% with Staphylococcus aureus [1] and “Not active; Compound Activity Was Not Significant” with Staphylococcus aureus [3]. Besides, the inhibition result with Staphylococcus aureus [2] and in the assay with Mus musculus was “Active” each time. In the assay with Staphylococcus aureus [4], the outcome was Active.
